What all share (assay): relative viability (nuclei count vs DMSO), 5 days (fraction); higher = more cells survive
Compound in assay [1]: CC[C@@H](C)CNCC(=O)N1CCC2=C([C@@H]1COC3=CC=CC(=C3)C)C=CS2 [RU-SKI 43] + CCNC(=O)c1noc(-c2cc(C(C)C)c(O)cc2O)c1-c1ccc(CN2CCOCC2)cc1 [Luminespib] (partner 0.01 µM)
In a few lines:
(§1)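 Relative viability was taken as the ratio of nuclei in treated wells to nuclei in vehicle wells. Lung cancer cell lines in 1536-well plates received compounds by pin tool one day after seeding, either one drug alone or a fixed anchor-drug dose plus five library-drug doses (not always all listed) in √10 steps. Nuclei were counted on 4× images after 5 days of treatment, and values are medians of duplicate plates.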

Compound in assay [2]: Cn1cc(-c2cnc3ccc4ccc(CS(=O)(=O)NCc5ccccn5)cc4c(=O)c3c2)cn1 [MK-8033] + C[C@]1(O)C[C@@H](c2nc(-c3ccc4ccc(-c5ccccc5)nc4c3)c3c(N)nccn32)C1 [Linsitinib] (partner 1 µM)
In a few lines:
as §1

Compound in assay [3]: CC[C@@H](C)CNCC(=O)N1CCC2=C([C@@H]1COC3=CC=CC(=C3)C)C=CS2 [RU-SKI 43] + CC(C)C[C@H](NC(=O)[C@H](Cc1ccccc1)NC(=O)c1cnccn1)B(O)O [Bortezomib] (partner 0.002 µM)
The gist of the method:
as §1

Compound in assay [4]: Cn1cc(-c2cnc3ccc4ccc(CS(=O)(=O)NCc5ccccn5)cc4c(=O)c3c2)cn1 [MK-8033] + Cc1nc(Nc2ncc(C(=O)Nc3c(C)cccc3Cl)s2)cc(N2CCN(CCO)CC2)n1 [Dasatinib] (partner 0.075 µM)
The gist of the method: as §1

Regarding UMC-11, the relative viability in assay [1] (first compound 0.1 µM) is 1.13; in assay [1] (first compound 0.3162 µM), 1.29; in assay [1] (first compound 1 µM), 1; in assay [1] (first compound 3.162 µM), 1.04; in assay [1] (first compound 10 µM), 1.09; in assay [2] (first compound 0.02 µM), 0.973. For the same cell line, the relative viability in assay [2] (first compound 0.06325 µM) was determined as 0.739; in assay [2] (first compound 0.2 µM) it was 0.974; in assay [2] (first compound 0.6325 µM), 0.969; in assay [2] (first compound 2 µM), 0.979; in assay [3] (first compound 0.1 µM), 0.731; in assay [3] (first compound 0.3162 µM), 1.1. Besides, the relative viability was determined as 1.05 in assay [3] (first compound 1 µM); 0.666 in assay [3] (first compound 3.162 µM); 0.927 in assay [3] (first compound 10 µM); 0.448 in assay [4] (first compound 0.02 µM); 0.378 in assay [4] (first compound 0.06325 µM); 0.421 in assay [4] (first compound 0.2 µM). In assay [4] (first compound 2 µM), the relative viability was found to be 0.413.
